Values of other authors as cited in US7771744B2, “Bazedoxifene acetate formulations” (Wyeth LLC, priority 2005, dated 2010).

Key:
[1] = system: MCF-7 cell line (human breast cancer cell line)
[2] = system: bone loss and cholesterol; details: ovariectomized rat model of osteopenia
[3] = system: uterine response; details: preclinical models of uterine stimulation

solubility in aqueous and organic solvent systems compared with form B	SMILES	estrogen antagonist behaviour [1]	effect on bone loss and cholesterol [2]	stimulation of uterine response [3]
higher solubility	Cc1c(-c2ccc(O)cc2)n(Cc2ccc(OCCN3CCCCCC3)cc2)c2ccc(O)cc12 [Form A, 1-[4-(2-azepan-1-yl-ethoxy)-benzyl]-2-(4-hydroxy-phenyl)-3-methyl-1H-indol-5-ol acetic acid]	–	–	–
–	Cc1c(-c2ccc(O)cc2)n(Cc2ccc(OCCN3CCCCCC3)cc2)c2ccc(O)cc12 [bazedoxifene acetate, 1-[4-(2-azepan-1-yl-ethoxy)-benzyl]-2-(4-hydroxy-phenyl)-3-methyl-1H-indol-5-ol acetic acid]	behaves as an estrogen antagonist	estrogen agonist-like effect in preventing bone loss and reducing cholesterol	little or no stimulation of uterine response
